Laboratory results reported in the supplement of paper PMC12137928.
Structures can show the parent of a compound that is named as a salt.

System: HCT116
Conditions: 72 h
In short: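 Four-parameter Hill fits gave IC50 and maximal efficacy. The data were CellTiter-Glo luminescence readings in HCT116 cells, normalized so that vehicle was 0% and positive control was -100%, with pattern correction afterwards.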

| SMILES | IC50 cell viability (ICRF193 0 nM) [µM] | IC50 cell viability (ICRF193 200 nM) [µM] |
| --- | --- | --- |
| COc1nccnc1NS(=O)(=O)c1ccc(N)cc1 [Sulfalene] | > 45.8 | > 45.8 |
| CC(C)C[C@H](NC(=O)[C@@H](COC(C)(C)C)NC(=O)[C@H](Cc1ccc(O)cc1)NC(=O)[C@H](CO)NC(=O)[C@H](Cc1c[nH]c2ccccc12)NC(=O)[C@H](Cc1cnc[nH]1)NC(=O)[C@@H]1CCC(=O)N1)C(=O)N[C@@H](CCCNC(=N)N)C(=O)N1CCC[C@H]1C(=O)NNC(N)=O [Goserelin (acetate)] | > 45.8 | > 45.8 |
| CCOC(=O)N[C@@H]1CC[C@@H]2[C@@H](C1)C[C@H]1C(=O)O[C@H](C)[C@H]1[C@H]2/C=C/c1ccc(-c2cccc(F)c2)cn1 [Vorapaxar Sulfate] | > 45.8 | > 45.8 |
| c1ccc2c(c1)sc1ccccc12 [Dibenzothiophene] | > 45.8 | > 45.8 |
| CC(C)=CCC1C(=O)N(c2ccccc2)N(c2ccccc2)C1=O [Feprazone] | > 45.8 | > 45.8 |
| CCN1CCN(c2cc3c(cc2F)c(=O)c(C(=O)O)cn3C2CC2)CC1 [Enrofloxacin] | > 45.8 | > 45.8 |
| O=C(O)c1cc(=O)[nH]c(=O)[nH]1 [Orotic acid] | > 45.8 | > 45.8 |
| CN1C2CCCC1CC(NC(=O)c1nn(C)c3ccccc13)C2 (stereo unspecified) [Granisetron (AB-1001)] | > 45.8 | > 45.8 |
| Cc1onc(-c2ccccc2)c1-c1ccc(S(N)(=O)=O)cc1 [Valdecoxib] | > 45.8 | > 45.8 |
| CCC(=O)O[C@H]1[C@H](O[C@@H]2[C@@H](C)[C@H](O[C@H]3C[C@@](C)(OC)[C@@H](O)[C@H](C)O3)[C@@H](C)C(=O)O[C@H](CC)[C@@](C)(O)[C@H](O)[C@@H](C)C(=O)[C@H](C)C[C@@]2(C)O)O[C@H](C)C[C@@H]1N(C)C [Erythromycin propionate] | > 45.8 | > 45.8 |
| OC[C@H]1O[C@@H](O[C@@H]2[C@@H](CO)OC(O)(CO)[C@H]2O)[C@H](O)[C@@H](O)[C@H]1O (mixture of isomers) [Lactulose] | > 45.8 | > 45.8 |
| N=C(N)Nc1ccc(C(=O)Oc2ccc3cc(C(=N)N)ccc3c2)cc1 [Nafamostat mesilate] | > 45.8 | > 45.8 |
| CN1CC(O)c2cc(N=NC(=N)N)c(O)cc21 (stereo unspecified) [ADRENOCHROME MONOAMINOGUANIDINE MESILATE ANHYDROUS] | > 45.8 | > 45.8 |
| Cc1ncc(CNC(=O)N(CCCl)N=O)c(N)n1 [Nimustine] | > 45.8 | > 45.8 |
| Oc1ccccc1-c1ccccc1 [Sodium 2-phenylphenate tetrahydrate] | > 45.8 | > 45.8 |
| C#C[C@]1(O)CC[C@H]2[C@@H]3CCc4cc(OC)ccc4[C@H]3CC[C@@]21C [Mestranol] | > 45.8 | > 45.8 |
| CC(C(O)c1ccc(O)cc1)N1CCC(Cc2ccccc2)CC1 (stereo unspecified) [Ifenprodil] | > 45.8 | > 45.8 |
| CCC(=O)O[C@]1(C(=O)COC)[C@@H](C)C[C@H]2[C@@H]3CCC4=CC(=O)C=C[C@]4(C)[C@@]3(F)[C@@H](O)C[C@@]21C [Amelometasone] | > 45.8 | > 45.8 |
| COc1nc(N)nc2c1ncn2[C@@H]1O[C@H](CO)[C@@H](O)[C@@H]1O [Nelarabine] | > 45.8 | > 45.8 |
| CC(C)(C)CC(C)(C)c1cc(Cc2cc(C(C)(C)CC(C)(C)C)cc(-n3nc4ccccc4n3)c2O)c(O)c(-n2nc3ccccc3n2)c1 | > 45.8 | > 45.8 |

| SMILES | IC50 cell viability (ICRF193 0 nM) [µM] | IC50 cell viability (ICRF193 200 nM) [µM] |
| --- | --- | --- |
| CCCCOCCOC(=O)c1cccnc1 [Nicoboxil] | > 45.8 | > 45.8 |
| C[C@]12CCC(=O)C=C1CC[C@@H]1[C@@H]2CC[C@]2(C)C(=O)CC[C@@H]12 [4-Androstene-3,17-dione] | > 45.8 | > 45.8 |
| O=C(O)CCC(=O)OC[C@@H](NC(=O)C(Cl)Cl)[C@H](O)c1ccc([N+](=O)[O-])cc1 [Chloramphenicol sodium succinate] | > 45.8 | > 45.8 |
| COc1cccc(CCc2ccccc2OCC(CN(C)C)OC(=O)CCC(=O)O)c1 (stereo unspecified) [Sarpogrelate hydrochloride] | > 45.8 | > 45.8 |
| CCc1c(C)[nH]c2c1C(=O)C(CN1CCOCC1)CC2 (stereo unspecified) [Molindone hydrochloride] | > 45.8 | > 45.8 |
| CC(C)C[C@H]1[C@@H](c2ccccc2)OC(=O)N1CCCN1CCCCCC1 [Ipenoxazone hydrochloride] | > 45.8 | > 45.8 |
| O=C(O)CCSC[C@H]1O[C@@H]2O[C@H]3[C@H](O)[C@@H](O)[C@@H](O[C@H]4[C@H](O)[C@@H](O)[C@@H](O[C@H]5[C@H](O)[C@@H](O)[C@@H](O[C@H]6[C@H](O)[C@@H](O)[C@@H](O[C@H]7[C@H](O)[C@@H](O)[C@@H](O[C@H]8[C@H](O)[C@@H](O)[C@@H](O[C@H]9[C@H](O)[C@@H](O)[C@@H](O[C@H]1[C@H](O)[C@H]2O)O[C@@H]9CSCCC(=O)O)O[C@@H]8CSCCC(=O)O)O[C@@H]7CSCCC(=O)O)O[C@@H]6CSCCC(=O)O)O[C@@H]5CSCCC(=O)O)O[C@@H]4CSCCC(=O)O)O[C@@H]3CSCCC(=O)O [Sugammadex] | > 45.8 | > 45.8 |
| C#CC1(O)CC[C@H]2[C@@H]3CCC4=CC(=O)CC[C@@H]4[C@H]3CC[C@@]21CC (stereo partly specified) [Norgestrel] | > 45.8 | > 45.8 |
| N=C(N)NCCC[C@@H](NC(=O)[C@@H]1CCCN1C(=O)[C@@H]1CSSCCC(=O)N[C@@H](Cc2ccc(O)cc2)C(=O)N[C@@H](Cc2ccccc2)C(=O)N[C@@H](CCC(N)=O)C(=O)N[C@@H](CC(N)=O)C(=O)N1)C(=O)NCC(N)=O [Desmopressin (Acetate)] | > 45.8 | > 45.8 |
| Cc1cc(O)c2c(O)c3c(O)cccc3cc2c1 [Chrysarobin] | > 45.8 | > 45.8 |
| O=P(O)(O)CP(=O)(O)O [Medronic acid] | > 45.8 | > 45.8 |
| O=C([O-])CC(O)C(=O)[O-].[Na+].[Na+] (stereo unspecified) [Disodium 2-hydroxybutanedioate] | > 45.8 | > 45.8 |
| Cc1ccc(S(=O)(=O)NC(=O)NN2CC3CCCC3C2)cc1 (stereo unspecified) [Gliclazide] | > 45.8 | > 45.8 |
| CC1(C)S[C@@H]2[C@H](NC(=O)[C@H](NC(=O)N3CCN(S(C)(=O)=O)C3=O)c3ccccc3)C(=O)N2[C@H]1C(=O)O [Mezlocillin Sodium] | > 45.8 | > 45.8 |
| COc1ccc(CN2CCNCC2)c(OC)c1OC [Trimetazidine dihydrochloride] | > 45.8 | > 45.8 |
| NS(=O)(=O)c1ccc(Cl)c(S(N)(=O)=O)c1 [Clofenamide] | > 45.8 | > 45.8 |
| CCOc1ccc(C(=O)OCCN(CC)CC)cc1 [Parethoxycaine] | > 45.8 | > 45.8 |
| Nc1nc(=O)n([C@@H]2CS[C@H](CO)O2)cc1F [Emtricitabine] | > 45.8 | > 45.8 |
| O=C1OC2(c3ccccc31)c1cc(I)c(O)c(I)c1Oc1c2cc(I)c(O)c1I [Erythrosin B] | > 45.8 | > 45.8 |
| CC(C)(C)c1ccc2c(S(=O)(=O)O)c(C(C)(C)C)ccc2c1 [DIBUNATE SODIUM] | > 45.8 | > 45.8 |

| SMILES | IC50 cell viability (ICRF193 0 nM) [µM] | IC50 cell viability (ICRF193 200 nM) [µM] |
| --- | --- | --- |
| NC(=O)CC[C@@H](N)C(=O)O [D-Glutamine] | > 45.8 | > 45.8 |
| Cc1c(O)c(=O)ccn1C [Deferiprone] | > 45.8 | > 45.8 |
| CC(=O)Oc1cc(C(C)C)c(OCCN(C)C)cc1C [Moxisylyte hydrochloride] | > 45.8 | > 45.8 |
| CCN(CC)CCNC(=O)c1cc(Cl)c(N)cc1OC [Metoclopramide] | > 45.8 | > 45.8 |
| CC(C)NC1CCn2c(=O)[nH]c3cccc(c32)C1O (stereo unspecified) [Zilpaterol·HCl] | > 45.8 | > 45.8 |
| O=C1c2c(O)cccc2Cc2cccc(O)c21 [Anthralin] | > 45.8 | > 45.8 |
| NC(=O)c1cnccn1 [Pyrazinamide] | > 45.8 | > 45.8 |
| Nc1[nH]cnc2ncnc1-2 [Adenine] | > 45.8 | > 45.8 |
| Cn1nnnc1SCC1=C(C(=O)O)N2C(=O)[C@@H](NC(=O)[C@H](O)c3ccccc3)[C@H]2SC1 [CEFAMANDOLE SODIUM] | > 45.8 | > 45.8 |
| Nc1ccn(C[C@@H](CO)OCP(=O)(O)O)c(=O)n1 [Cidofovir] | > 45.8 | > 45.8 |
| CCCCC(CC)CN1CN(CC(CC)CCCC)CC(C)(N)C1 (stereo unspecified) [Hexetidine] | > 45.8 | > 45.8 |
| Cc1c(I)c(=O)n(-c2ccccc2)n1C [Iodoantipyrine] | > 45.8 | > 45.8 |
| CO/N=C(\C(=O)N[C@@H]1C(=O)N2C(C(=O)O)=C(CSc3nc(=O)c(O)nn3C)CS[C@H]12)c1csc(N)n1 [Ceftriaxone disodium trihydrate] | > 45.8 | > 45.8 |
| Clc1ccc(C(c2ccc(Cl)cc2)C(Cl)(Cl)Cl)cc1 [p,p'-DDT] | > 45.8 | > 45.8 |
| C[N+]1(C)CCC(=C(c2ccccc2)c2ccccc2)CC1 [Diphemanil methylsulfate] | > 45.8 | > 45.8 |
| CCCCOC(=O)c1ccc(N)cc1 [Butyl 4-aminobenzoate] | > 45.8 | > 45.8 |
| CC(CC=O)CCCC(C)(C)O (stereo unspecified) [Hydroxycitronellal] | > 45.8 | > 45.8 |
| COc1ccccc1OCC(O)COC(N)=O (stereo unspecified) [Methocarbamol] | > 45.8 | > 45.8 |
